Measurements taken from US20110207751A1, “HETEROCYCLIC COMPOUNDS AND USES AS ANTICANCER AGENTS” (priority 2010, published 2011).
pIC50: −log10 of the molar value. Counter-ions that a name gives are not always drawn.

Legend:
[1] = test system: tubulin (vinblastine-binding site); assay: Spin column assay with [^3H]vinblastine; settings: tubulin with [^3H]vinblastine and unlabeled competitor, 37° C. 1 h
Description: (§1) Spin column assay. […] The reaction mixtures were incubated at 37° C. for 1 h. The samples were loaded onto Illustra™ MicroSpin™ G-50 columns (GE Healthcare) previously equilibrated with the buffer solution. The columns were placed into 1.5-ml tubes and spun at 750 g for 2 min at room temperature, and radioactivity in the flow-through was analyzed by a scintillation counter.

A549 cells = assay: Cell-cycle distribution by flow cytometry; assay type: cell-based, human; settings: 37 nM, 24 hours, vs DMSO only
Description: In addition, we have also tested the effect of COMPOUND O on cell-cycle using flow Cytometry. Briefly, A549 cells were seeded at a density of 400,000 cells/well in 6-well tissue culture plates. Approximately 24 hours later the cells were treated with 37 nM COMPOUND O and allowed to further incubate for 24 hours. The cells were washed in PBS, trypsinized, counted and fixed in ice-cold 70% methanol and stored at 4° C. The cells were washed with PBS, stained with propidium iodide and kept on ice until flow Cytometry analysis.

[2] = Body weight and animal number of carrier mice, H460 xenograft test; assay type: in vivo, BALB/c immunodeficient nude mice; settings: for Animal No. end: 7 at beginning
Source text: (§2) To evaluate the in vivo anticancer efficacy of COMPOUND O, H460 human non-small cell lung Cancer xenograft models in immunodeficient nude mice was used. The cell line and mice were maintained in the Pharmacology Lab of ACEA Bio (Hangzhou) CO., Ltd. The BALB/c immunodeficient nude mice were purchased from Shanghai SLAC Laboratory Animal, certification number: SCXKA (Shanghai) 2007-0005. The mouse weight was between 19±2 g. Only female mice were used in this study. The numbers of animals tested were as follows: 7 for each dose group, 7 for positive control group and 7 for negative control group.
(§3) Test Control. For negative control, each mouse was administered orally with the solvent only having the same volume and same concentration as those used in COMPOUND O test, 120 mg/kg once every other day (qod) for 25 days. For positive control, an oral anticancer compound, Etoposide was administered orally at 30 mg/kg qod for 25 days.
(§4) Preparation an Administration of Test Compounds. COMPOUND O was dissolved in 25% phospholipid (S75) and 75% polyvinylpyrrolidone (PL-PVP) then further diluted to 8 mg/ml in 0.9% NaCl aqueous solution. Each mouse was administered orally with the compound solution. Different dosages of COMPOUND O (120 mg/kg qod and 160 mg/kg q3d) were used in the study.
(§5) All used materials including animal food, animal cage, supporting materials and apparatus contacted by animals, were high-pressure sterilized. Nude mice were maintained in laminar flow shelves under SPF condition. After tumor transplantation, mouse weight and tumor size in each compound dosage group were dynamically monitored and plotted. The tumor size was determined by measuring the major axis (a) and minor axis (b) of the tumor, and tumor volume was calculated according to the formula (2) in Example 1.

[3] = test system: KB cells (parental cervical cancer cell line); assay: Inhibition of cell proliferation, xCelligence cell index; assay type: cell-based; settings: Homo sapiens, 72 hr post compound treatment, read-out: calculated IC50
Source text: The biological activity of compounds disclosed herein was monitored and profiled using the Real-Time Cell Electronic Sensing (RT-CES®) system from ACEA Biosciences, Inc. The RT-CES system utilizes cell-substrate impedance technology to monitor cellular behavior inside tissue culture wells in a microtiter plate format. The technology features in the integration of molecular and cell biology with microelectronics and is based on the electronic detection of biological assay process.
For measurement of cell-substrate or cell-electrode impedance using RT-CES technology, microelectrodes having appropriate geometries are fabricated onto the bottom surfaces of microtiter plate or similar device, facing into the wells. Cells are introduced into the wells of the devices, and make contact to and attach to the electrode surfaces. The presence, absence or change of properties of cells affects the electronic and ionic passage on the electrode sensor surfaces. Measuring the impedance between or among electrodes provides important information about biological status of cells present on the sensors. When there are changes to the biological status of the cells analogue electronic readout signals are measured automatically and in real time, and are converted to digital signals for processing and for analysis. In a RT-CES system, a cell index (arbitrary representation of change in impedance) is automatically derived and provided based on measured electrode impedance values. The cell index obtained for a given well reflects: 1) how many cells are attached to the electrode surfaces in this well; 2) how well cells are attached to the electrode surfaces in this well. […]
To quantify cell status based on the measured cell-electrode impedance, a parameter termed Cell Index is derived. Cell Index is a quantitative measure of the status of the cells in an electrode-containing well. […]
The parental cervical cancer cell line, KB cells were first tested. […] The cell status was monitored prior to and after the compound addition using xCelligence system (Roche). […]

[4] = test system: H460 human non-small cell lung cancer xenograft; assay: In vivo antitumor efficacy, H460 xenograft; set-up: species or system BALB/c immunodeficient nude mice; settings: for Tumor inhibition rate %: by tumor weight
Source text: as §2, §3, §4
Preparation of tumor cells for transplantation and determination of compound efficacy. To prepare the cancer cells for H460 human non-small cell lung cancer xenograft model, the log phase growing cell in the flask were trypsinized and cells were re-suspended in PBS (pH 7.2) at 1.5×10^7 cells/ml. The cell suspension (3×10^6 cells) was subcutaneously injected into the auxiliary region (right-side) of each mouse. After the inoculated cancer cells grew to a tumor of certain size (150 mm^3) in the nude mice, the mice were randomized into different dosing groups and subjected to compound treatment. Between 3-4 weeks after the first dosing, mice were sacrificed and the transplanted tumors were removed from experimental mice. Each removed solid tumor was weighed; the tumor inhibition rate in each dosage group was calculated according to equation (1) in Example 1.
as §5

[5] = test system: microtubule network in A549 cells; assay: Microtubule organization in A549 cells; assay type: cell-based, human; settings: 20 hr treatment
[6] = test system: tubulin (colchicine-binding site); assay: Spin column assay with [^3H]colchicine; settings: tubulin with [^3H]colchicine and unlabeled competitor, 37° C. 1 h
Description: as §1

**Q.** For `CCc1ccc(Nc2nc(-c3c(C)nc4sccn34)cs2)cc1` [COMPOUND O, 2-(4-ethylphenyl)amino-4-(6-methylimidazo[2,1-b]thiazol-5-yl)-thiazole monohydrobromide], which “amount of [^3H]vinblastine in the flow-through” value [1] is on record?
**A.** neither colchicine nor COMPOUND O affected the amount of [^3H]vinblastine in the flow-through

**Q.** What about the “cell population at G2/M phase” value (A549 cells) of the same compound?
**A.** increased significantly

**Q.** What about the “Animal weight (g) Beginning” value ([2]; 120 mg/kg ig × 11 qod) of the same compound?
**A.** 20.04 g

**Q.** And the “Animal weight (g) end” value ([2]; 120 mg/kg ig × 11 qod)?
**A.** 17.33 g

**Q.** And the “Body weight of mice (g) 1 day” value ([2]; 120 mg/kg ig × 11 qod)?
**A.** 20.04 ± 0.51 g

**Q.** What about the “Body weight of mice (g) 3 day” value ([2]; 120 mg/kg ig × 11 qod) of the same compound?
**A.** 19.80 ± 1.18 g

**Q.** What about the “Body weight of mice (g) 7 day” value ([2]; 120 mg/kg ig × 11 qod) of the same compound?
**A.** 18.86 ± 0.70 g

**Q.** What about the “Body weight of mice (g) 10 day” value ([2]; 120 mg/kg ig × 11 qod) of the same compound?
**A.** 18.20 ± 0.68 g

**Q.** What about the “Body weight of mice (g) 14 day” value ([2]; 120 mg/kg ig × 11 qod) of the same compound?
**A.** 18.11 ± 0.49 g

**Q.** And the “Body weight of mice (g) 17 day” value ([2]; 120 mg/kg ig × 11 qod)?
**A.** 17.43 ± 0.51 g

**Q.** What about the “Body weight of mice (g) 22 day” value ([2]; 120 mg/kg ig × 11 qod) of the same compound?
**A.** 17.24 ± 0.72 g

**Q.** What about the “Body weight of mice (g) 24 day” value ([2]; 120 mg/kg ig × 11 qod) of the same compound?
**A.** 17.56 ± 1.21 g

**Q.** What about the “Body weight of mice (g) 25 day” value ([2]; 120 mg/kg ig × 11 qod) of the same compound?
**A.** 17.33 ± 1.23 g

**Q.** And the “Animal No. end” value ([2]; 120 mg/kg ig × 11 qod)?
**A.** 7/7

**Q.** And the “Animal weight (g) Beginning” value ([2]; 160 mg/kg ig × 9 q3d)?
**A.** 20.00 g

**Q.** What about the “Animal weight (g) end” value ([2]; 160 mg/kg ig × 9 q3d) of the same compound?
**A.** 16.24 g

**Q.** What about the “Body weight of mice (g) 1 day” value ([2]; 160 mg/kg ig × 9 q3d) of the same compound?
**A.** 20.00 ± 0.48 g

**Q.** What about the “Body weight of mice (g) 3 day” value ([2]; 160 mg/kg ig × 9 q3d) of the same compound?
**A.** 20.54 ± 0.53 g

**Q.** What about the “Body weight of mice (g) 7 day” value ([2]; 160 mg/kg ig × 9 q3d) of the same compound?
**A.** 18.64 ± 0.61 g

**Q.** And the “Body weight of mice (g) 10 day” value ([2]; 160 mg/kg ig × 9 q3d)?
**A.** 17.89 ± 0.39 g

**Q.** What about the “Body weight of mice (g) 14 day” value ([2]; 160 mg/kg ig × 9 q3d) of the same compound?
**A.** 17.83 ± 0.57 g

**Q.** And the “Body weight of mice (g) 17 day” value ([2]; 160 mg/kg ig × 9 q3d)?
**A.** 18.24 ± 0.46 g

**Q.** And the “Body weight of mice (g) 22 day” value ([2]; 160 mg/kg ig × 9 q3d)?
**A.** 16.91 ± 0.97 g

**Q.** And the “Body weight of mice (g) 24 day” value ([2]; 160 mg/kg ig × 9 q3d)?
**A.** 16.53 ± 1.29 g

**Q.** What about the “Body weight of mice (g) 25 day” value ([2]; 160 mg/kg ig × 9 q3d) of the same compound?
**A.** 16.24 ± 1.55 g

**Q.** What about the “Animal No. end” value ([2]; 160 mg/kg ig × 9 q3d) of the same compound?
**A.** 7/7

**Q.** And the pIC50 [3]?
**A.** 7.48

**Q.** And the “TV inhibition rate % T/C” value ([4]; 120 mg/kg ig × 11 qod)?
**A.** 47.0%

**Q.** And the “Tumor volume (mm^3) End” value ([4]; 120 mg/kg ig × 11 qod)?
**A.** 745.28 ± 245.55 mm^3

**Q.** What about the “Tumor volume (mm^3) Start” value ([4]; 120 mg/kg ig × 11 qod) of the same compound?
**A.** 162.09 ± 53.94 mm^3

**Q.** What about the “Tumor weight (g) x ± SD” value ([4]; 120 mg/kg ig × 11 qod) of the same compound?
**A.** 0.81 ± 0.29 g

**Q.** What about the “Tumor inhibition rate %” value ([4]; 120 mg/kg ig × 11 qod) of the same compound?
**A.** 47.1%

**Q.** And the “TV inhibition rate % T/C” value ([4]; 160 mg/kg ig × 9 q3d)?
**A.** 69.9%

**Q.** And the “Tumor volume (mm^3) End” value ([4]; 160 mg/kg ig × 9 q3d)?
**A.** 524.67 ± 141.77 mm^3

**Q.** What about the “Tumor volume (mm^3) Start” value ([4]; 160 mg/kg ig × 9 q3d) of the same compound?
**A.** 171.44 ± 53.63 mm^3

**Q.** What about the “Tumor weight (g) x ± SD” value ([4]; 160 mg/kg ig × 9 q3d) of the same compound?
**A.** 0.46 ± 0.13 g

**Q.** And the “Tumor inhibition rate %” value ([4]; 160 mg/kg ig × 9 q3d)?
**A.** 31.3%

**Q.** What about the “effect on microtubule organization” value [5] of the same compound?
**A.** findings similar to those of vincristine-induced microtubule changes

**Q.** And the “amount of [^3H]colchicine in the flow-through” value [6]?
**A.** reduced the amount of [^3H]colchicine in the flow-through in a concentration-dependent manner

**Q.** Which “Animal weight (g) Beginning” value ([2]; 30 mg/kg ig × 13 qod) does the source give for `COc1cc([C@@H]2c3cc4c(cc3[C@@H](O[C@@H]3O[C@@H]5CO[C@@H](C)O[C@H]5[C@H](O)[C@H]3O)[C@H]3COC(=O)[C@H]23)OCO4)cc(OC)c1O` [Etoposide, reference compound] here?
**A.** 19.97 g

**Q.** What about the “Animal weight (g) end” value ([2]; 30 mg/kg ig × 13 qod) of the same compound?
**A.** 17.13 g

**Q.** What about the “Body weight of mice (g) 1 day” value ([2]; 30 mg/kg ig × 13 qod) of the same compound?
**A.** 19.97 ± 0.88 g

**Q.** What about the “Body weight of mice (g) 3 day” value ([2]; 30 mg/kg ig × 13 qod) of the same compound?
**A.** 19.66 ± 0.75 g

**Q.** What about the “Body weight of mice (g) 7 day” value ([2]; 30 mg/kg ig × 13 qod) of the same compound?
**A.** 19.70 ± 1.38 g

**Q.** And the “Body weight of mice (g) 10 day” value ([2]; 30 mg/kg ig × 13 qod)?
**A.** 19.66 ± 1.10 g

**Q.** And the “Body weight of mice (g) 14 day” value ([2]; 30 mg/kg ig × 13 qod)?
**A.** 18.86 ± 1.07 g

**Q.** What about the “Body weight of mice (g) 17 day” value ([2]; 30 mg/kg ig × 13 qod) of the same compound?
**A.** 18.79 ± 1.17 g

**Q.** And the “Body weight of mice (g) 22 day” value ([2]; 30 mg/kg ig × 13 qod)?
**A.** 17.86 ± 1.35 g

**Q.** What about the “Body weight of mice (g) 24 day” value ([2]; 30 mg/kg ig × 13 qod) of the same compound?
**A.** 17.56 ± 1.44 g

**Q.** And the “Body weight of mice (g) 25 day” value ([2]; 30 mg/kg ig × 13 qod)?
**A.** 17.13 ± 1.14 g

**Q.** And the “Animal No. end” value ([2]; 30 mg/kg ig × 13 qod)?
**A.** 7/7

**Q.** What about the “TV inhibition rate % T/C” value ([4]; 30 mg/kg ig × 13 qod) of the same compound?
**A.** 50.4%

**Q.** What about the “Tumor volume (mm^3) End” value ([4]; 30 mg/kg ig × 13 qod) of the same compound?
**A.** 775.43 ± 302.62 mm^3

**Q.** And the “Tumor volume (mm^3) Start” value ([4]; 30 mg/kg ig × 13 qod)?
**A.** 163.79 ± 57.22 mm^3

**Q.** And the “Tumor weight (g) x ± SD” value ([4]; 30 mg/kg ig × 13 qod)?
**A.** 0.76 ± 0.29 g

**Q.** And the “Tumor inhibition rate %” value ([4]; 30 mg/kg ig × 13 qod)?
**A.** 48.4%

**Q.** With `CC(=O)O[C@H]1C(=O)[C@@]2(C)[C@H]([C@H](OC(=O)c3ccccc3)[C@]3(O)C[C@H](OC(=O)[C@H](O)[C@@H](NC(=O)c4ccccc4)c4ccccc4)C(C)=C1C3(C)C)[C@]1(OC(C)=O)CO[C@@H]1C[C@@H]2O` [paclitaxel] as the compound, how does the pIC50 [3] read?
**A.** 8.14

**Q.** What about the “effect on microtubule organization” value [5] of the same compound?
**A.** microtubule polymerization with an increasing in the density of cellular microtubules
